# Measured values taken from US20220177538A1, “CO-AGONISTS AT GLP-1 AND GIP RECEPTORS SUITABLE FOR ORAL DELIVERY” (Novo Nordisk A/S, priority 2020, published 2022).
# Where two headings read alike, the source gives them in different places. Marks after values point to notes of the source that are not given here. Starred links: 1 amine or outer side, 2 acyl side, 3 side chain; linkers in the order of their positions; H or OH if unused. Non-standard residues stand in square brackets, D forms with d. Residues, ends and D or L forms follow the SMILES beside them. Groups on a side chain read outwards from the residue. *: point of attachment. C18 diacid = O=C(O)CCCCCCCCCCCCCCCCC(=O)*; γGlu = O=C(O)[C@H](CCC(=O)[*:2])N[*:1]; εLys = N[C@@H](CCCCN[*:1])C(=O)[*:2]; AEEA = NCCOCCOCC(=O)O; Aib = CC(C)(N)C(=O)O
# What was measured:
# human GIP receptor = target: T1, human GIP receptor (Homo sapiens, UniProt P48546); test: In vitro functional potency, CRE luciferase reporter, whole BHK cells (hGIPR); format: cell-based; settings: BHK CRE luc2P hGIPR cells
# T1 construct: expressed in transfected cells; host or cells: BHK (parent line BHKTS13), clone BHK CRE luc2P hGIPR
# T1 sequence (P48546 22-466): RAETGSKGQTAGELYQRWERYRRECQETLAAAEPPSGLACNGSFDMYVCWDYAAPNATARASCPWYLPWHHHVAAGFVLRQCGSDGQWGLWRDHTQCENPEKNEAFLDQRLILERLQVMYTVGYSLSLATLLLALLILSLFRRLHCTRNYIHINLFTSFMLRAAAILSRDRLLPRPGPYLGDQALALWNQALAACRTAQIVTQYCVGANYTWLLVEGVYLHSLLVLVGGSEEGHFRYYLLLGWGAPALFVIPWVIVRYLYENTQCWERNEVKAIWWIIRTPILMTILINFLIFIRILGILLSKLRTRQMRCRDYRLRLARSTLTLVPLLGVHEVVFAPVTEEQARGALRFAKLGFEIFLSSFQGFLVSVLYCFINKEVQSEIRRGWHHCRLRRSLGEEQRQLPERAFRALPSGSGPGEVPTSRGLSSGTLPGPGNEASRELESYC
# Procedure, shortened: (§1)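 Potencies are replicate means (n≥2) from non-linear log(agonist) vs response fits of CRE-driven luminescence. Cells were overnight-plated BHK CRE luc2P lines transfected with human GIPR or GLP-1R, 5000/well.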
# [1] = Pharmacokinetic study in dogs after oral dosing of tablets with SNAC; format: in vivo, Beagle dogs; settings: dog, in vivo, po; for Tmax / half-life: male, Beagle
# Description: The purpose of this example is to determine the half-life and plasma exposure in vivo of the compounds of the present invention after p.o. administration to beagle dogs, i.e. the terminal half-life and concentration of test substance that reaches circulation with time. This is done in a pharmacokinetic (PK) study, where these parameters of the compound in question are determined. By terminal half-life is generally meant the period of time it takes to halve a certain plasma concentration, measured after the initial distribution phase.
# The amount of SNAC in the tablet composition was 100-300 mg, the amount of magnesium stearate in the tablet composition was 7.7 mg, and the target amount of each test substance in the tablet composition was 3-4 mg.
# Male beagle dogs, 1-7 years of age and weighing 9-17 kg during the study period, were included in the study. The dogs were dosed in a fasting state. The dogs were group housed in pens (12 hours light: 12 hours dark), and fed individually and restrictedly once daily with Royal Canin Medium Adult dog food (Royal Canin Products, China Branch, or Brogaarden A/S, Denmark). The dogs were used for repeated PK studies with a suitable wash-out period between successive dosing. An appropriate acclimatization period was given prior to initiation of the first PK study. All handling, dosing, and blood sampling of the animals were performed by trained and skilled staff. Before the studies, the dogs were fasted overnight and from 0 to 4 hours after dosing. The dogs were restricted to water 1 hour before dosing until 4 hours after dosing, but otherwise had ad libitum access to water during the whole period.
# The compositions were administered by a single oral dosing to the dogs in groups of 6-8 dogs. […] The mouth was then closed, and 10 mL of tap water was given by syringe or gavage to facilitate swallowing of the tablet.
# One blood sample was drawn before dosing, and additional samples were drawn at predefined time points after dosing for up to 240 hours, such as up to 10 hours, to adequately cover the full plasma concentration-time absorption profile of the test substance. For each blood sample time point, approximately 0.8 mL of whole blood was collected in a 1.5 mL EDTA-coated tube, which was gently turned to mix the sample with EDTA. Blood samples were collected in EDTA buffer (8 mM) and then centrifuged at 4° C. 2000 g for 10 minutes. Plasma was pipetted into Micronic tubes on dry ice, and kept at −20° C. or lower until analysis. Blood samples were taken as appropriate, for example from a venflon in the cephalic vein in the front leg for the first 2 hours and then with syringe from the jugular vein for the rest of the time points. The first few drops were allowed to drain from the venflon to avoid heparin saline from the venflon in the sample.
# All blood samples were collected into test tubes containing EDTA for stabilisation and kept on ice until centrifugation. Plasma was separated from whole blood by centrifugation and the plasma was stored at −20° C. or lower until analysis.
# The plasma was analysed for test substance using LC-MS (Liquid Chromatography-Mass Spectrometry) as known to the person skilled in the art. […] RP-HPLC separation was achieved using a linear gradient of 1:1 acetonitrile/methanol in 1% aqueous formic acid using either: a Phenomenex Onyx Monolithic C18 column (50×2.0 mm) and a flow rate of 0.8 mL/min at 30° C.; or an Agilent Poroshell 120 SB-C18 column (50×2.1 mm, 2.7 μm) at a flow rate of 0.4 mL/min at 60° C. The mass spectrometer was operated in either positive ionization SIM mode or positive ionization PRM mode.
# For each individual animal, a plasma concentration-time profile was analysed by a non-compartmental model in Pharsight Phoenix WinNonLin ver.
# human GLP-1 receptor = human GLP-1 receptor (Homo sapiens, UniProt P43220); test: In vitro functional potency, CRE luciferase reporter, whole BHK cells (hGLP-1R); format: cell-based; parameters: expressed in transfected cells; host or cells: BHK (parent line BHKTS13), clone BHK CRE luc2P hGLP-1R; settings: BHK CRE luc2P hGLP-1R cells
# human GLP-1 receptor, sequence (P43220 24-463): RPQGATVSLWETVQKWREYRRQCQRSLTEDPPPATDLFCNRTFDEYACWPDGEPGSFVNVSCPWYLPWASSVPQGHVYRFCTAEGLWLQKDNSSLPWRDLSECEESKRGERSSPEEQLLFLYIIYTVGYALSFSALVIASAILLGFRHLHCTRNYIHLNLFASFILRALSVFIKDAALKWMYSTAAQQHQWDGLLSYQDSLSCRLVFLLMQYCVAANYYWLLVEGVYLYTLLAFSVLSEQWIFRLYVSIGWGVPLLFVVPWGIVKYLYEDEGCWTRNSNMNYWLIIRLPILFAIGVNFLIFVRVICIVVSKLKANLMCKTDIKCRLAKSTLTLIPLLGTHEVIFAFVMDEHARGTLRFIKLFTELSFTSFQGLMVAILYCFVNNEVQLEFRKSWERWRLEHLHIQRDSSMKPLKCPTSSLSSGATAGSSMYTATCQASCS
# Procedure, shortened: as §1
# [2] = 0% HSA, read-out: hGIPR, CRE Luc 0% HSA EC50
# [3] = hGIPR, CRE Luc 1% HSA EC50, 1% HSA
# [4] = 0% HSA, read-out: hGLP-1R, CRE Luc 0% HSA EC50
# [5] = hGLP-1R, CRE Luc 1% HSA EC50, 1% HSA
SMILES,EC50 (human GIP receptor; [2]),EC50 (human GIP receptor; [3]),AUC/Dose [1],Cmax/Dose [1],Tmax [1],half-life [1],EC50 (human GLP-1 receptor; [4]),EC50 (human GLP-1 receptor; [5])
CC[C@H](C)[C@H](NC(=O)[C@H](Cc1ccccc1)NC(=O)[C@H](CCC(=O)O)NC(=O)[C@H](Cc1c[nH]cn1)NC(=O)[C@H](C)NC(=O)[C@H](C)NC(=O)[C@H](CCC(N)=O)NC(=O)[C@H](CCCCNC(=O)[C@@H](N)CCCCNC(=O)[C@@H](N)CCCCNC(=O)CC[C@H](NC(=O)CCCCCCCCCCCCCCCCC(=O)O)C(=O)O)NC(=O)[C@H](CCC(=O)O)NC(=O)[C@H](CC(C)C)NC(=O)[C@H](CC(C)C)NC(=O)[C@@H](NC(=O)[C@H](CO)NC(=O)[C@H](Cc1ccc(O)cc1)NC(=O)[C@H](CC(=O)O)NC(=O)[C@H](CO)NC(=O)[C@@H](NC(=O)[C@H](Cc1ccccc1)NC(=O)[C@@H](NC(=O)CNC(=O)[C@H](CCC(=O)O)NC(=O)C(C)(C)NC(=O)[C@@H](N)Cc1ccc(O)cc1)[C@@H](C)O)[C@@H](C)O)[C@@H](C)CC)C(=O)N[C@@H](CC(N)=O)C(=O)N[C@@H](Cc1c[nH]c2ccccc12)C(=O)N[C@@H](CC(C)C)C(=O)N[C@@H](CC(C)C)C(=O)N[C@@H](C)C(=O)NCC(=O)NCC(=O)N1CCC[C@H]1C(=O)N[C@@H](CO)C(=O)N[C@@H](CO)C(=O)NCC(=O)N[C@@H](C)C(=O)N1CCC[C@H]1C(=O)N1CCC[C@H]1C(=O)N1CCC[C@H]1C(=O)N[C@@H](CO)C(=O)O [Compound 26] (H-Y[Aib]EGTFTSDYSILLEK([εLys-εLys-γGlu-C18 diacid])QAAHEFINWLLAGGPSSGAPPPS-OH),0.0049 nM,0.153 nM,27.4* kg * h/L,0.49* kg/L,1.2 h,2.92 days,0.0074 nM,0.595 nM
CC[C@H](C)[C@H](NC(=O)[C@H](Cc1ccccc1)NC(=O)[C@H](CCC(=O)O)NC(=O)[C@H](Cc1c[nH]cn1)NC(=O)[C@H](C)NC(=O)[C@H](C)NC(=O)[C@H](CCC(N)=O)NC(=O)[C@H](CCCCNC(=O)[C@@H](N)CCCCNC(=O)[C@@H](N)CCCCNC(=O)CC[C@H](NC(=O)CCCCCCCCCCCCCCCCC(=O)O)C(=O)O)NC(=O)[C@H](CCC(=O)O)NC(=O)[C@H](CC(C)C)NC(=O)[C@H](CC(C)C)NC(=O)[C@@H](NC(=O)[C@H](CO)NC(=O)[C@H](Cc1ccc(O)cc1)NC(=O)[C@H](CC(=O)O)NC(=O)[C@H](CO)NC(=O)[C@@H](NC(=O)[C@H](Cc1ccccc1)NC(=O)[C@@H](NC(=O)CNC(=O)[C@H](CCC(=O)O)NC(=O)C(C)(C)NC(=O)[C@@H](N)Cc1ccc(O)cc1)[C@@H](C)O)[C@@H](C)O)[C@@H](C)CC)C(=O)N[C@@H](CCC(=O)O)C(=O)N[C@@H](Cc1c[nH]c2ccccc12)C(=O)N[C@@H](CC(C)C)C(=O)N[C@@H](CC(C)C)C(=O)N[C@@H](C)C(=O)NCC(=O)NCC(=O)N1CCC[C@H]1C(=O)N[C@@H](CO)C(=O)N[C@@H](CO)C(=O)NCC(=O)N[C@@H](C)C(=O)N1CCC[C@H]1C(=O)N1CCC[C@H]1C(=O)N1CCC[C@H]1C(=O)N[C@@H](CO)C(=O)O [Compound 30] (H-Y[Aib]EGTFTSDYSILLEK([εLys-εLys-γGlu-C18 diacid])QAAHEFIEWLLAGGPSSGAPPPS-OH),0.0032 nM,0.185 nM,6.5 kg·h/L,0.24 kg/L,0.8 h,3.38 days,0.0073 nM,0.267 nM
CC[C@H](C)[C@H](NC(=O)[C@H](Cc1ccccc1)NC(=O)[C@H](CCC(=O)O)NC(=O)[C@H](CCCNC(=N)N)NC(=O)[C@H](C)NC(=O)[C@H](C)NC(=O)[C@H](CCC(N)=O)NC(=O)[C@H](CCCCNC(=O)COCCOCCNC(=O)COCCOCCNC(=O)CC[C@H](NC(=O)CCCCCCCCCCCCCCCCC(=O)O)C(=O)O)NC(=O)[C@H](CCC(=O)O)NC(=O)[C@H](CC(C)C)NC(=O)[C@H](CC(C)C)NC(=O)[C@@H](NC(=O)[C@H](CO)NC(=O)[C@H](Cc1ccc(O)cc1)NC(=O)[C@H](CC(=O)O)NC(=O)[C@H](CO)NC(=O)[C@@H](NC(=O)[C@H](Cc1ccccc1)NC(=O)[C@@H](NC(=O)CNC(=O)[C@H](CCC(=O)O)NC(=O)C(C)(C)NC(=O)[C@@H](N)Cc1ccc(O)cc1)[C@@H](C)O)[C@@H](C)O)[C@@H](C)CC)C(=O)N[C@@H](CCC(=O)O)C(=O)N[C@@H](Cc1c[nH]c2ccccc12)C(=O)N[C@@H](CC(C)C)C(=O)N[C@@H](CC(C)C)C(=O)N[C@@H](C)C(=O)NCC(=O)NCC(=O)N1CCC[C@H]1C(=O)N[C@@H](CO)C(=O)N[C@@H](CO)C(=O)NCC(=O)N[C@@H](C)C(=O)N1CCC[C@H]1C(=O)N1CCC[C@H]1C(=O)N1CCC[C@H]1C(=O)N[C@@H](CO)C(=O)O [Compound 32] (H-Y[Aib]EGTFTSDYSILLEK([AEEA-AEEA-γGlu-C18 diacid])QAAREFIEWLLAGGPSSGAPPPS-OH),0.0071 nM,0.679 nM,25.3* kg * h/L,0.45* kg/L,1.8 h,3.33 days,0.005 nM,0.982 nM
CC[C@H](C)[C@H](NC(=O)[C@H](Cc1ccccc1)NC(=O)[C@H](CCC(=O)O)NC(=O)[C@H](CCCNC(=N)N)NC(=O)[C@H](C)NC(=O)[C@H](C)NC(=O)[C@H](CCC(N)=O)NC(=O)[C@H](CCC(=O)O)NC(=O)[C@H](CCC(=O)O)NC(=O)[C@H](CC(C)C)NC(=O)[C@H](CC(C)C)NC(=O)[C@H](CCCCNC(=O)[C@@H](N)CCCCNC(=O)[C@@H](N)CCCCNC(=O)CC[C@H](NC(=O)CCCCCCCCCCCCCCCCC(=O)O)C(=O)O)NC(=O)[C@H](CO)NC(=O)[C@H](Cc1ccc(O)cc1)NC(=O)[C@H](CC(=O)O)NC(=O)[C@H](CO)NC(=O)[C@@H](NC(=O)[C@H](Cc1ccccc1)NC(=O)[C@@H](NC(=O)CNC(=O)[C@H](CCC(=O)O)NC(=O)C(C)(C)NC(=O)[C@@H](N)Cc1ccc(O)cc1)[C@@H](C)O)[C@@H](C)O)C(=O)N[C@@H](CCC(=O)O)C(=O)N[C@@H](Cc1c[nH]c2ccccc12)C(=O)N[C@@H](CC(C)C)C(=O)N[C@@H](CC(C)C)C(=O)N[C@@H](C)C(=O)NCC(=O)NCC(=O)N1CCC[C@H]1C(=O)N[C@@H](CO)C(=O)N[C@@H](CO)C(=O)NCC(=O)N[C@@H](C)C(=O)N1CCC[C@H]1C(=O)N1CCC[C@H]1C(=O)N1CCC[C@H]1C(=O)N[C@@H](CO)C(=O)O [Compound 40],0.0095 nM,0.501 nM,27.0 kg·h/L,0.48 kg/L,2 h,2.54 days,0.0064 nM,0.334 nM
